# Values quoted from earlier work as cited in patent US7030094B2, “Immunostimulant compositions comprising an aminoalkyl glucosaminide phosphate and QS-21” (priority 2002, dated 2006).
# Read-outs that look alike come from different tables or passages of the source.
# How the values were obtained:
# [1] = system: sheep red blood cells
substance,measurement,setting,value
QS-21,concentration causing hemolysis of sheep red blood cells,[1],≥ 25000 ng/mL
same,critical micellar concentration,in phosphate buffered saline,~0.02 % (w/v)
same,critical micellar concentration,in water,about 0.03 % (w/v)
